System: Spodoptera frugiperda
Assay: Laboratory test of 2nd instar larva of Spodoptera frugiperda on maize leaves (mortality)
Assay type: in vivo

CNC(=O)c1cc(Cl)cc(C)c1NC(=O)c1cc(Br)nn1-c1ncccc1Cl [Compound 2, 3-bromo-N-[4-chloro-2-methyl-6-[(methylamino)carbonyl]phenyl]-1-(3-chloro-2-pyridinyl)-1H-pyrazole-5-carboxamide]
concentration per g of leaf tissue resulting in 50% mortality within 72 h (50% mortality within 72 h): 0.033 micrograms per g of leaf tissu
concentration per g of tissue needed to achieve 100% mortality within 72 h (100% mortality within 72 h): 0.037 micrograms per g of tissue
